The target of this test is CFTR-mediated chloride transport in human intestinal epithelial enteroid cells (Homo sapiens, UniProt P13569). Put plainly: Membrane potential dye, Enteroid Assay A. Format: cell-based. As to conditions: for EC50: read-out: Ent. A EC50. Here is the method: Base medium (ADF+++) consisted of Advanced DMEM/Ham's F12, 2 mM Glutamax, 10 mM HEPES, […] penicillin/streptomycin.
Bath 1 Buffer consisted of 1 mM MgCl2, 160 mM NaCl, 4.5 mM KCl, 10 mM HEPES, 10 mM Glucose, 2 mM CaCl2.
Chloride Free Buffer consisted of 1 mM Magnesium Gluconate, 2 mM Calcium Gluconate, 4.5 mM Potassium Gluconate, 160 mM Sodium Gluconate, 10 mM HEPES, 10 mM Glucose.
Bath1 Dye Solution consisted of Bath 1 Buffer, 0.04% Pluronic F127, 20 μM Methyl Oxonol, 30 μM CaCCinh-A01, 30 μM Chicago Sky Blue.
Chloride Free Dye Solution consisted of Chloride Free Buffer, 0.04% Pluronic F127, 20 μM Methyl Oxonol, 30 μM CaCCinh-A01, 30 μM Chicago Sky Blue.
3. Enteroid Cell Harvesting and Seeding
Cells were recovered in cell recovery solution, collected by centrifugation at 650 rpm for 5 min at 4° C., resuspended in TryPLE and incubated for 5 min at 37° C. Cells were then collected by centrifugation at 650 rpm for 5 min at 4° C. and resuspended in IEMM containing 10 μM ROCK inhibitor (RI).
4. Membrane Potential Dye, Enteroid Assay A
Briefly, cells were washed 5 times in Bath 1 Buffer. Bath 1 Dye Solution was added, and the cells were incubated for 25 min at room temperature. Following dye incubation, cells were washed 3 times in Chloride Free Dye Solution. Chloride transport was initiated by addition of Chloride Free Dye Stimulation Solution and the fluorescence signal was read for 15 min. […] Chloride transport was then expressed as a percentage of the chloride transport following treatment with 3 μM N-[(6-amino-2-pyridyl)sulfonyl]-6-(3-fluoro-5-isobutoxy-phenyl)-2-[(4S)-2,2,4-trimethylpyrrolidin-1-yl]pyridine-3-carboxamide, 3 μM (R)-1-(2,2-difluorobenzo[d][1,3]dioxol-5-yl)-N-(1-(2,3-dihydroxypropyl)-6-fluoro-2-(1-hydroxy-2-methylpropan-2-yl)-1H-indol-5-yl)cyclopropanecarboxamide and 300 nM acute N-[2,4-bis(1,1-dimethylethyl)-5-hydroxyphenyl]-1,4-dihydro-4-oxoquinoline-3-carboxamide triple combination control (% Activity).

Where [1] appears, read: percentage of chloride transport of triple combination control (3 μM N-[(6-amino-2-pyridyl)sulfonyl]-6-(3-fluoro-5-isobutoxy-phenyl)-2-[(4S)-2,2,4-trimethylpyrrolidin-1-yl]pyridine-3-carboxamide based).
Where [2] appears, read: enteroid cells incubated with test compound 18-24 hours, acute 10 μM forskolin and 300 nM N-[2,4-bis(1,1-dimethylethyl)-5-hydroxyphenyl]-1,4-dihydro-4-oxoquinoline-3-carboxamide.

Like-named read-outs stand apart in the source and are kept apart here. Some results are limits rather than exact numbers.

As a reminder, the EC50 is the midpoint of the concentration-response curve.

CFTR-mediated chloride transport in human intestinal epithelial enteroid cells, sequence (P13569 with tags, fused parts or gaps DEL508-508): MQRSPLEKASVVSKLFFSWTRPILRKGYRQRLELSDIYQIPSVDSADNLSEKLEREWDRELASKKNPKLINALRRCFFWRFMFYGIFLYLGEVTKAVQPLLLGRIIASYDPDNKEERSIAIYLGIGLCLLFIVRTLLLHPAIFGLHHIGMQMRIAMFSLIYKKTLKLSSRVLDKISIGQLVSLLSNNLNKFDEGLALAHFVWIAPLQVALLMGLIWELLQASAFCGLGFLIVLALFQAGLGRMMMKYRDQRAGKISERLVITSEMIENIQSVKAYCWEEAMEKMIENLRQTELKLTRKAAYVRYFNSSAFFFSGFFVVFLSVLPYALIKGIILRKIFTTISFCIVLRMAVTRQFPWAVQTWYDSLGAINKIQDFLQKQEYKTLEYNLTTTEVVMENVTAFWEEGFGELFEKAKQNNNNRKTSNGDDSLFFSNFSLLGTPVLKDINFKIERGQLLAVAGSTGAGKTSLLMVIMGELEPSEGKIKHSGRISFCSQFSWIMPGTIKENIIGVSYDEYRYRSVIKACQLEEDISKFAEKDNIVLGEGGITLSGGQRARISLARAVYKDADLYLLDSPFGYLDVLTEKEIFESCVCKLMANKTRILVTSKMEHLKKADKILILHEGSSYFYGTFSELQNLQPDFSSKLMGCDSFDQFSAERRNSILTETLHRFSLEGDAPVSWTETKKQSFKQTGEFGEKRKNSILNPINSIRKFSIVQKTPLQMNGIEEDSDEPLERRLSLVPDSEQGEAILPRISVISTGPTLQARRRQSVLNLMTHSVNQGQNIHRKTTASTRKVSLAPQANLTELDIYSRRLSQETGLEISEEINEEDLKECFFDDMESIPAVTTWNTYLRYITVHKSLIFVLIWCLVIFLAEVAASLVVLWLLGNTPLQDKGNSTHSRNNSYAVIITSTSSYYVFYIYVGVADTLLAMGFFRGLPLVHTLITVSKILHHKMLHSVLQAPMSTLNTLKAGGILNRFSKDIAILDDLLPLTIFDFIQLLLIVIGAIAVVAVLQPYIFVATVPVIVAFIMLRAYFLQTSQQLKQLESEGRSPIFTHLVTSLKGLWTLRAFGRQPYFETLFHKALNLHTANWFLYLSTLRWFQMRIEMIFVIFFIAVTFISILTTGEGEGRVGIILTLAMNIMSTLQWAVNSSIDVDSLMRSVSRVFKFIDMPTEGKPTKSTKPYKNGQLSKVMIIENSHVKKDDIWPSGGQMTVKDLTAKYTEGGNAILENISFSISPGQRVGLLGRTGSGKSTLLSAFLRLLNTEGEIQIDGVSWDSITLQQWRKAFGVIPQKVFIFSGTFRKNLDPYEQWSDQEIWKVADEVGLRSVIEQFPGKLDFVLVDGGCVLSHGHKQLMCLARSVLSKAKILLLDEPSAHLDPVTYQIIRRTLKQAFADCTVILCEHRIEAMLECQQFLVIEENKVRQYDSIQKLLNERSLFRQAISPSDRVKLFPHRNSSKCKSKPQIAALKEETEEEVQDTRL

Take `Cc1cccc(C)c1-c1cc2nc(n1)NS(=O)(=O)c1cccc(c1)C(=O)N1CC(CC(C)(C)C1)O2` (centres unmarked) [Compound 362]: where the note is “Enteroid Assay A”, the “Ent. A Max Activity (%)” value is recorded as “++ (++ is 30-60%)” and the EC50 was below 1000 nM.

For the molecule `Cc1cccc(C)c1-c1cc2nc(n1)NS(=O)(=O)c1cccc(c1)C(=O)N1CCN(CC3(C)COC3)C[C@@H]1CO2` [Compound 261], the “Ent. A Max Activity (%)” value under setting [1] was “+ (+ is <300%)”. Take `Cc1cccc(C)c1-c1cc2nc(n1)NS(=O)(=O)c1cccc(c1)C(=O)N1CCN(Cc3ccncc3)C[C@@H]1CO2` [Compound 280]: under setting [1], the “Ent. A Max Activity (%)” value is on record as “++ (++ is 30-60%)”. As to `Cc1cccc(C)c1-c1cc2nc(n1)NS(=O)(=O)c1cccc(c1)C(=O)N1C[C@@H](CN(C3CC4(CCCC4)C3)C[C@H]1C(C)C)O2` [Compound 127, (16R,20R)-12-(2,6-dimethylphenyl)-20-(propan-2-yl)-18-{spiro[3.4]octan-2-yl}-15-oxa-8λ^6-thia-1,9,11,18,22-pentaazatetracyclo[14.4.1.13,7.110,14]tricosa-3(23),4,6,10(22),11,13-hexaene-2,8,8-trione], where the note is “Enteroid Assay A”, the “Ent. A Max Activity (%)” value was “++ (++ is 30-60%)” and the EC50 was below 1000 nM. Take `Cc1cccc(C)c1-c1cc2nc(n1)NS(=O)(=O)c1cccc(c1)C(=O)N1CCC[C@@H](C1)O2` [Compound 335]: under setting [1], the “Ent. A Max Activity (%)” value is “+ (+ is <300%)”. `Cc1cccc(C)c1-c1cc2nc(n1)NS(=O)(=O)c1cccc(c1)C(=O)N1CC(C)(C)OCC1CO2` (centres unmarked) [Compound 254]: the EC50 under setting [2] fell in the range of 1000 to 3000 nM. Also, the “Ent. A Max Activity (%)” value under setting [1] is listed as “++ (++ is 30-60%)”. Take `Cc1cccc(C)c1-c1cc2nc(n1)NS(=O)(=O)c1cccc(c1)C(=O)N1CCN(Cc3ccccc3)CC(O2)C1CC(C)C` (single isomer, unassigned) [Compound 94, 18-Benzyl-12-(2,6-dimethylphenyl)-21-(2-methylpropyl)-15-oxa-8λ^6-thia-1,9,11,18,22-pentaazatetracyclo[14.4.1.13,7.110,14]tricosa-3(23),4,6,10(22),11,13-hexaene-2,8,8-trione]: where the note is “Enteroid Assay A”, the “Ent. A Max Activity (%)” value was “+++ (+++ is >600%)” and the EC50 is below 1000 nM.

Regarding `Cc1cccc(C)c1-c1cc2nc(n1)NS(=O)(=O)c1cccc(c1)C(=O)N1CCN(Cc3cccnc3)C[C@H](C1)O2` [Compound 66, (36R)-16-(2,6-dimethylphenyl)-34-(pyridin-3-ylmethyl)-2-oxa-6-thia-7-aza-3(6,1)-diazepana-1(4,2)-pyrimidina-5(1,3)-benzenacycloheptaphan-4-one 6,6-dioxide], the EC50 under setting [2] was 3000 to 30000 nM. The “Ent. A Max Activity (%)” value under setting [1] was “++ (++ is 30-60%)”. Turning to `Cc1cccc(C)c1-c1cc2nc(n1)NS(=O)(=O)c1cccc(c1)C(=O)N1CCOC[C@@H]1CO2` [Compound 366], the EC50 under setting [2] lay in the range of 3000 to 30000 nM. The “Ent. A Max Activity (%)” value under setting [1] is recorded as “++ (++ is 30-60%)”.

Take `Cc1cccc(C)c1-c1cc2nc(n1)NS(=O)(=O)c1cccc(c1)C(=O)N1CCN(Cc3ccn(C)n3)C[C@@H]1CO2` [Compound 285]: under setting [1], the “Ent. A Max Activity (%)” value is listed as “++ (++ is 30-60%)”. Turning to `Cc1cccc(C)c1-c1cc2nc(n1)NS(=O)(=O)c1cccc(c1)C(=O)N1CCOC[C@@H]1[C@@H](Cc1ccccc1)O2` [Compound 209, (8R)-9-Benzyl-13-(2,6-dimethylphenyl)-6,10-dioxa-17λ^6-thia-3,14,16,23-tetraazatetracyclo[16.3.1.111,15.03,8]tricosa-1(22),11,13,15(23),18,20-hexaene-2,17,17-trione], the EC50 under setting [2] is below 1000 nM. Moreover, under setting [1], the “Ent. A Max Activity (%)” value is reported as “+++ (+++ is >60%)”.

As to `Cc1cccc(C)c1-c1cc2nc(n1)NS(=O)(=O)c1cccc(c1)C(=O)N1CCc3ccccc3C(C1)O2` (single isomer, unassigned) [Compound 221, 12-(2,6-dimethylphenyl)-15-oxa-8λ^6-thia-1,9,11,26-tetraazapentacyclo[14.8.1.13,7.110,14.017,22]heptacosa-3(27),4,6,10(26),11,13,17,19,21-nonaene-2,8,8-trione], the EC50 (Enteroid Assay A) was below 1000 nM. `Cc1cccc(C)c1-c1cc2nc(n1)NS(=O)(=O)c1cccc(c1)C(=O)N1C[C@@H](CN(CC(C)(C)C)[C@@H](CC(C)C)C1)O2` [Compound 154]: where the note is “Enteroid Assay A”, the “Ent. A Max Activity (%)” value is listed as “+++ (+++ is >600%)” and the EC50 was below 1000 nM. With `Cc1cccc(C)c1-c1cc2nc(n1)NS(=O)(=O)c1cccc(c1)C(=O)N1CCNCC1C(Cc1ccccc1)O2` (centres unmarked) [Compound 176, 9-benzyl-13-(2,6-dimethylphenyl)-10-oxa-17λ^6-thia-3,6,14,16,23-pentaazatetracyclo[16.3.1.111,15.03,8]tricosa-1(22),11,13,15(23),18,20-hexaene-2,17,17-trione], under “Enteroid Assay A”, the “Ent. A Max Activity (%)” value is listed as “+ (+ is <30%)” and the EC50 lay in the range of 3000 to 30000 nM. Consider `Cc1cccc(C)c1-c1cc2nc(n1)NS(=O)(=O)c1cccc(c1)C(=O)N1CCN(CCCC(C)(C)C)C[C@@H]1CO2` [Compound 296], for which the EC50 under setting [2] was below 1000 nM. In addition, the “Ent. A Max Activity (%)” value under setting [1] is on record as “+++ (+++ is >60%)”. For `Cc1cccc(C)c1-c1cc2nc(n1)NS(=O)(=O)c1cccc(c1)C(=O)N1CCCC(C1)O2` (centres unmarked) [Compound 326] the same measures were 3000 to 30000 nM and “+ (+ is <300%)”. On to `Cc1cccc(C)c1-c1cc2nc(n1)NS(=O)(=O)c1cccc(c1)C(=O)N1CCN(Cc3cnn(C(C)C)c3)C[C@@H]1CO2` [Compound 264], for which the “Ent. A Max Activity (%)” value under setting [1] is given as “++ (++ is 30-60%)”. For the molecule `Cc1cccc(C)c1-c1cc2nc(n1)NS(=O)(=O)c1cccc(c1)C(=O)N1CCN(C(C)C)C[C@H](C1)O2` [Compound 75, (16R)-12-(2,6-Dimethylphenyl)-18-(propan-2-yl)-15-oxa-8λ^6-thia-1,9,11,18,22-pentaazatetracyclo[14.4.1.13,7.110,14]tricosa-3,5,7(23),10,12,14(22)-hexaene-2,8,8-trione], under “Enteroid Assay A”, the “Ent. A Max Activity (%)” value is listed as “+++ (+++ is >600%)” and the EC50 is below 1000 nM. Consider `Cc1cccc(C)c1-c1cc2nc(n1)NS(=O)(=O)c1cccc(c1)C(=O)N1Cc3cccnc3[C@H](C1)O2` (single isomer, unassigned) [Compound 196, 12-(2,6-Dimethylphenyl)-15-oxa-8λ^6-thia-1,9,11,18,25-pentaazapentacyclo[14.7.1.13,7.110,14.017,22]hexacosa-3,5,7(26),10(25),11,13,17,19,21-nonaene-2,8,8-trione], for which the “Ent. A Max Activity (%)” value under setting [1] is recorded as “+ (+ is <300%)”. For the molecule `Cc1cccc(C)c1-c1cc2nc(n1)NS(=O)(=O)c1cccc(c1)C(=O)N1CCN(CC(C)C)CC(C1)O2` (centres unmarked) [Compound 44, 12-(2,6-Dimethylphenyl)-18-isobutyl-8,8-dioxo-15-oxa-8λ^6-thia-1,9,11,18,22-pentazatetracyclo[14.4.1.13,7.110,14]tricosa-3,5,7(23),10(22),11,13-hexaen-2-one], the EC50 under setting [2] was below 1000 nM. Also, the “Ent. A Max Activity (%)” value under setting [1] is on record as “+++ (+++ is >60%)”. With `Cc1cccc(C)c1-c1cc2nc(n1)NS(=O)(=O)c1cccc(c1)C(=O)N1C[C@@H](CN(CC(C)(C)C)C[C@@H]1CC(C)C)O2` [Compound 151], for the setting “Enteroid Assay A”, the “Ent. A Max Activity (%)” value is on record as “++ (++ is 30-60%)” and the EC50 is below 1000 nM. Take `Cc1cccc(C)c1-c1cc2nc(n1)NS(=O)(=O)c1cccc(c1)C1CCCCN1C(CC(C)C)CO2` (centres unmarked) [Compound 253]: the “Ent. A Max Activity (%)” value under setting [1] is “+ (+ is <300%)”.

In the case of `Cc1cccc(C)c1-c1cc2nc(n1)NS(=O)(=O)c1cccc(c1)C(=O)N1CCN(CCC(C)C)CC(C1)O2` (centres unmarked) [Compound 58], the EC50 under setting [2] was below 1000 nM. Besides, the “Ent. A Max Activity (%)” value under setting [1] is listed as “+++ (+++ is >60%)”. As for `Cc1cccc(C)c1-c1cc2nc(n1)NS(=N)(=O)c1cccc(c1)C(=O)N1CCNCC(C1)O2` (centres unmarked) [Compound 241, 12-(2,6-Dimethylphenyl)-8-imino-15-oxa-8λ^6-thia-1,9,11,18,22-pentaazatetracyclo[14.4.1.13,7.110,14]tricosa-3,5,7(23),10,12,14(22)-hexaene-2,8-dione], the “Ent. A Max Activity (%)” value (Enteroid Assay A) is listed as “+ (+ is <30%)”. Regarding `Cc1cccc(C)c1-c1cc2nc(n1)NS(=O)(=O)c1cccc(c1)C(=O)N1CCN(Cc3cncn3C)CC(C1)O2` (centres unmarked) [Compound 51], under setting [1], the “Ent. A Max Activity (%)” value is recorded as “+ (+ is <300%)”.

For the molecule `Cc1cccc(C)c1-c1cc2nc(n1)NS(=O)(=O)c1cccc(c1)C(=O)N1Cc3ccccc3C(C1)O2` (centres unmarked) [Compound 325], the EC50 under setting [2] was below 1000 nM. Also, the “Ent. A Max Activity (%)” value under setting [1] was “+++ (+++ is >60%)”. The matching figures for `Cc1cccc(C)c1-c1cc2nc(n1)NS(=O)(=O)c1cccc(c1)C(=O)N1CCN(C(=O)CC3CCCCC3)C[C@@H]1CO2` [Compound 255]: below 1000 nM and “++ (++ is 30-60%)”.

(Values after patent US20240018161A1, “MODULATORS OF CYSTIC FIBROSIS TRANSMEMBRANE CONDUCTANCE REGULATOR” (VERTEX PHARMACEUTICALS INCORPORATED, priority 2020, published 2024).)
